From patent publication US11629174B2, “Cryptic metabolites and method for activating silent biosynthetic gene clusters in actinomycete bacteria” (The Trustees of Princeton University, priority 2017, dated 2023)
Like-named read-outs stand apart in the source and are kept apart here. Square brackets hold non-standard residues; d marks the D form. Peptide text beside a SMILES is read from it. * marks the point of attachment. ξ: configuration not given here. dIle(3ξ) = CCC(C)[C@@H](N)C(=O)O; Ile(3ξ) = CCC(C)[C@H](N)C(=O)O; ξK = NCCCCC(N)C(=O)O; Butyryl = CCCC(=O)*

Assays:
Gene cluster 2631 = assay: HiTES in S. erythraea, gene cluster 2631; format: cell-based; settings: FIG. 10
Gene cluster 3648 = assay: HiTES in S. avermitilis, gene cluster 3648; format: cell-based; settings: FIGS. 16 and 17
Gene cluster 4143 = assay: HiTES in S. erythraea, gene cluster 4143; format: cell-based; settings: FIG. 12
Gene cluster 4477 = assay: HiTES in S. erythraea, gene cluster 4477; format: cell-based; settings: FIG. 14
Gene cluster 4286 = assay: HiTES in S. erythraea, gene cluster 4286; format: cell-based; settings: FIG. 13
S. cerevisiae = assay: Antifungal microtiter assay; format: cell-based; settings: Saccharomyces cerevisiae, 40 h, OD600
Experimental: Bacillus subtilis 168, E. coli K 12, Pseudomonas aeruginosa PAO1, Enterococcus faecalis OG1RF, Staphylococcus aureus Newman, Saccharomyces cerevisiae and Saccharomyces pombe were used for antibiotic assays. B. subtilis (30° C.), E. coli (37° C.), P. aeruginosa (30° C.), and E. faecalis (37° C.) were cultured in LB medium at the temperatures indicated. S. aureus was cultured in Brain-Heart-Infusion (BHI) medium at 37° C. S. cerevisiae and S. pombe were grown at 25° C. in YPM medium (0.5% yeast extract, 0.3% peptone, 2.5% mannitol), and YES medium (0.5% yeast extract, 3% glucose, 225 mg/L leucine, 225 mg/L histidine, 225 mg/L adenine, 225 mg/L uracil), respectively. The assays were carried out in accordance with the 2003 guidelines of the Clinical and Laboratory Standards Institute (CLSI) using the microtiter method. Briefly, microbial seed cultures were initiated by inoculating 3 mL of the indicated medium each strain and by growing these overnight at the indicated temperatures. Each culture was then diluted to an initial OD600 nm of 0.02 in 100 μL volume per well in a 96-well plate, which gave an inoculum of ˜5×10^5 to 5×10^6 cells. […] The plates were then incubated at the temperatures listed above without shaking and OD600 nm determined after 16 h (bacteria) or 40 h (yeast). […]

[1] = test system: 36 diverse cancer cell lines; settings: cited from earlier work
sur cluster = assay: High-throughput elicitor screen (HiTES), eGFPx3 reporter strains of the sur cluster; format: cell-based, Streptomyces albus J1074; settings: attB::Psur-eGFPx3 and surE::eGFPx3, ~33 μM, 60 h, hit threshold 2.5-fold eGFP fluorescence
Experimental: These next four steps are seen be referring to the previously described example. In the previously described example, HiTES was carried out using the two constructs seen in FIGS. 2B and 2C with a ˜500-member natural products library. Each S. albus construct was grown in a 96-well format, supplemented with the compound library, and the effect of each compound on the silent BGC determined using eGFP-derived fluorescence. Interference from naturally fluorescent compounds in the library was eliminated by subtracting the […], immediately after addition of the library members.
Referring to FIGS. 3A and 3B, results for both genetic constructs are shown. These graphs show relative expression of a neutral site reporter, attB::Psur-eGFPx3 (FIG. 3A) or targeted sur reporter, surE::eGFPx3 (FIG. 3B) as a function of exogenously-supplied small molecules. Each bar represents the level of expression of sur in the presence of a single candidate elicitor. Plus signs denote the positive control, attB::PermE-eGFPx3. Minus signs denote the negative controls, attB::Psur-eGFPx3 (3A) or surE::eGFPx3 (3B) in the absence of any metabolites. The expression has been normalized to the positive control.
In this example, the threshold amount was a 2.5 fold induction of eGFP-derived fluorescence emission. Thus, hits were considered those that gave at least a 2.5-fold induction of eGFP-derived fluorescence emission. However, in other embodiments, hits may be those giving at least a 2 fold induction, more preferably at least a 3 fold induction, and more preferably at least a 4 fold induction.
Seed cultures for the reporter strains sur::eGFPx3, attB::Psur-eGFPx3, negative control wild-type, and positive control attB::PermE-eGFPx3 inoculated by transferring fresh spores (˜10^7) into 20 mL of YEME medium (per L: 3% (w/v) yeast extract, 5% peptone, 3% malt extract, 1% glucose and 10.7% sucrose, and 5 mM MgCl2.6H2O) in a 125 mL Erlenmeyer flask equipped with stain-less steel springs. The cultures were grown at 30° C. and 250 rpm for 3 days. Mycelia from each of the four cultures were collected by centrifugation (10 min, 3000 g, RT) and diluted into 150 mL of R4 medium to give a final concentration of 0.05% (w/v). R4 medium consisted of (per L) 0.5% (w/v) glucose, 0.1% yeast extract, 0.5% MgCl2.6H2O, 0.2% CaCl2.2H2O, 0.15% proline, 0.118% valine, 0.28% TES, 50 mg/L casamino acid, 100 mg/L K2SO4, and 1× trace element solution, which contains 40 mg/L ZnCl2, 200 mg/L FeCl3.6H2O, 10 mg/L CuCl2.2H2O, 10 mg/L MnCl2.4H2O, 10 mg/L Na2B4O7.10H2O, and 10 mg/L (NH4)6Mo7O24.4H2O).
Subsequently, the two reporter strains (sur::eGFPx3 and attB::Psur-eGFPx3) were each dispensed into 5× sterile, clear-bottom 96-well plates (150 μL per well) using a MultiFlo Microplate Dispenser (BioTek). A separate sterile 96-well separate plate was prepared for positive and negative controls; it contained the negative control (wt S. albus J1074) in columns 1-3, sur::eGFPx3 in columns 4-6, attB::Psur-eGFPx3 in columns 7-9, and the positive control attB::PermE-eGFPx3 in columns 10-12 of the plate. No elicitors were added to the control plates. […] Upon additional of the compound library, t=0 fluorescence reads were recorded on a Synergy H1MF plate reader (BioTek) using Aex=485 nm and Aem=505-650 nm in 5 nm steps. […]

surA and surC = assay: RT-qPCR of surA and surC transcripts in wt S. albus; format: cell-based, Streptomyces albus J1074; settings: for induction of surA and surC: mRNA vs DMSO control, wt S. albus
Experimental: In the example above, the effects of these putative elicitors on the sur cluster were validated by performing a RT-qPCR with wt S. albus. Upon exposure of S. albus to each elicitor or DMSO (control), total RNA was be isolated, converted to cDNA and the surA and surC transcripts quantified by qPCR. […] To further verify the effect of 1 and 2, a dose-response assay was carried out. With both elicitors, a concentration-dependent induction of sur was observed, yielding optimal upregulation at a final concentration of ˜23 μM (etoposide) and −30 μM (ivermectin) (FIG. 4B). These concentrations induced a ˜10-fold (etoposide) and 4.5-fold (ivermectin) upregulation of surC.
All operations involving RNA utilized a dedicated RNase-free work area. To commence the experiment, seed cultures of wt S. albus J1074 were prepared by inoculating 3 ml of TSBY medium (3% (w/v) tryptic soy broth and 0.5% yeast extract) in a sterile 14 ml bacterial culture tube with freshly-prepared spores (˜10^7). The culture was incubated at 30° C. and 250 rpm in an Ecotron Shaker (ATR). After 48 hours cultivation, the cells were collected by centrifugation and subsequently diluted to a final concentration of 0.05% (w/v) in 250 ml Erlenmeyer flask containing 50 ml of R4 medium. Desired elicitors were added to final concentrations indicated in the figures (typically 1-100 μM), and the cultures were incubated at 30° C. and 250 rpm. After 48 h, 1 ml was removed from each sample and transferred to a 1.5 ml RNase-free Eppendorf tube (Ambion). Each sample was centrifuged (16,000 g, 3 min) to collect the cells, the supernatant discarded, the cells flash-frozen in liquid N2, and stored at −80° C.
RNA isolation was carried out using the Qiagen RNeasy kit following the manufacturer's instructions without modifications. Upon isolation, contaminating DNA was removed using the DNA-free kit (Ambion) according to manufacturer's instructions. Gel electrophoreses subsequently confirmed RNA integrity (FIG. S2). Finally, total RNA was converted into cDNA via the PrimeScript™ RT reagent Kit (Takara) using random hexamers as primers and 500 ng of each RNA sample as template.
Three genes (surA, surC and surR) were chosen for quantification by RT-qPCR. The primers were designed using primer-3-plus software available online. The primers were carefully chosen to give an amplicon length of 130-160 bp and a melting temperature of 60° C., though this was later optimized (see below and Table 2). The primers were chosen to vary in length between 18-22 bp, and, if possible, to contain a single G/C clamp at the 3′ end. To ensure optimal qPCR parameters, the genomic DNA of S. albus J1074 was isolated using the Wizard genomic DNA purification kit (Promega), and each amplicon was subsequently amplified using standard PCR conditions with a high-fidelity, proof-reading Q5 DNA polymerase (NEB). The PCR reactions were then separated on a 1.2% agarose gel, the amplicon excised, and gel-extracted with the Gel Extraction kit (Qiagen). The extracted DNA was used to optimize qPCR conditions. Using the amplicon template, the primer concentrations were first varied followed by the annealing/extension temperatures, which ranged from 58-68° C. in eight steps. The combination that gave the lowest quantification cycle (Cq) was used in the experiments (Table 2). The Cq was obtained with an automatic baseline determined by the CFX Manager Software (Bio-Rad). As positive controls, these standards were included in every plate that contained the experimental samples, along with no-DNA controls, in duplicates.
qPCR analysis was performed on a CFX96 Real-Time PCR Detection System (Bio-Rad) consisting of a C1000 Thermal Cycler and a CFX96 Real-Time System. The reaction was carried out in hard-shell, clear 96-well qPCR plates (Bio-Rad) and utilized the iTaq Universal SYBR Green Supermix (Bio-Rad). […]

cathepsin B = target: T1, cathepsin B (Homo sapiens, UniProt P07858); assay: Cathepsin B inhibition assay (fluorescence kit); format: biochemical
T1 construct: purchased Sigma-Aldrich
Experimental: Cathepsin B inhibition assays were carried as previously reported using the Cathepsin B Inhibition assay kit (Sigma-Aldrich). The fluorescence-based assays was conducted in a final volume of 50 μL according to manufacturer instructions. Fluorescence emission was determined in a microtiter plate in kinetic mode (1 read per minute for 1 h) using a BioTek H1MF plate reader and Aex˜400/Acm˜505 nm. IC50 values were subsequently calculated according to instructions.

For `COc1c2ccoc2cc2oc(=O)ccc12` [Bergapten], the “elicitor of gene cluster 2631 (ranking)” value (Gene cluster 2631) was “top three elicitors”.

For `COc1cc(CNC(=O)CCCC/C=C/C(C)C)ccc1O` [Capsacin], the “elicitor of gene cluster 3648 (ranking)” value (Gene cluster 3648) was “top four elicitors”.

For `OCc1c[nH]c2ccccc12` [Indole-3-carbinol], the “elicitor of gene cluster 4143 (ranking)” value (Gene cluster 4143) was “top three elicitors” and the “elicitor of gene cluster 4477 (ranking)” value (Gene cluster 4477) was “top three elicitors”.

In the case of `CC#C[C@]1(O)CC[C@H]2[C@@H]3CCC4=CC(=O)CCC4=C3[C@@H](c3ccc(N(C)C)cc3)C[C@@]21C` [Mifepristone], the “elicitor of gene cluster 3648 (ranking)” value (Gene cluster 3648) is reported as “top four elicitors”.

For `CC[C@H](C)/C=C(C)/C=C/C1=CC2=C(Cl)C(=O)[C@](C)(OC(C)=O)C(=O)C2=CO1` [Sclerotiorin], the “elicitor of gene cluster 4286 (ranking)” value (Gene cluster 4286) was “top three elicitors”.

Work on `CCCC(=O)NCCCCC1NC(=O)[C@@H](C(C)CC)NC(=O)[C@H](C(C)CC)NC(=O)[C@@H](C)NC(=O)[C@H](C(C)CC)NC(=O)[C@@H](CC(C)C)NC(=O)[C@@H](Cc2ccccc2)NC(=O)[C@H](C(C)CC)NC1=O` (stereo partly drawn) [acylsurugamide A] (cyclo([Ile(3ξ)][dA][Ile(3ξ)][dIle(3ξ)][ξK](Butyryl)[Ile(3ξ)][dF][dL])) yielded an IC50 (S. cerevisiae) of 3.5 µM.

For `CNC1=CC(=O)c2cc(C)ncc2C1=O` [compound 25, 3-methyl-7-methylamino-5,8-isoquinolinedione], the IC50 ([1]; read-out: IC50s (range over panel)) is given as 0.2 to 50 µM and the IC50 ([1]; read-out: mean IC50) is given as 3.5 µM.

With `CC(C)[C@@]1(NC(=O)[C@@H]2C[C@@H]3c4cccc5[nH]cc(c45)C[C@H]3N(C)C2)O[C@@]2(O)[C@@H]3CCCN3C(=O)[C@H](Cc3ccccc3)N2C1=O` [dihydroergocristine] the “induction of the sur cluster in both reporter strains (hit ranking)” value (shortened to “induction of the sur cluster”) (sur cluster) was “best hits” and the “induction of surA and surC” value (surA and surC) was 3 fold.

In the case of `Oc1cc(O)cc(/C=C/c2ccc(O)c(O)c2)c1` [piceattanol], the “induction of the sur cluster” value (sur cluster) is reported as “best hits”.

For `CC(C)C[C@H]1NC(=O)[C@@H](Cc2ccccc2)NC(=O)[C@H](C(C)C)NC(=O)[C@H](CCCCN)NC(=O)[C@@H](C(C)C)NC(=O)[C@H](C(C)C)NC(=O)[C@@H](C)NC(=O)[C@H](C(C)C)NC1=O` [surugamide I] (cyclo(KV[dF][dL]V[dA]V[dV])), the IC50 (cathepsin B) was 9 µM.

In the case of bromolaudanosine, the “induction of the sur cluster” value (sur cluster) is reported as “best hits”.

With ivermectin the “induction of the sur cluster” value (sur cluster) was “best hits”, the “upregulation of surC” value (surA and surC; at the optimal elicitor concentration, vs DMSO) was 4.5 fold and the “induction of surA and surC” value (surA and surC) was 3 fold. The “elicitor of gene cluster 4143 (ranking)” value (Gene cluster 4143) was “top three elicitors”.
